Test results taken from PMC5641551, “Chemical Proteomics for Target Discovery of Head-to-Tail Cyclized Mini-Proteins” (Frontiers in Chemistry, 2017).
No end group written: not given here.

Columns and labels:
[1] = test system: Foxo3a transcriptional activity in HEK293 cells co-transfected with 14-3-3β; experiment: Foxo3a luciferase reporter gene assay; assay type: cell-based, human
Description: Jurkat cells were cultured in RPMI medium containing phenol red supplemented with 10% (v/v) heat deactivated fetal calf serum and 100 U/mL penicillin/streptomycin at 37°C in humidified atmosphere of 5% CO2. HEK293 cells were cultured in Dulbecco's modified eagle high glucose medium supplied with 10% fetal calf serum and 100 U per mL penicillin/streptomycin. Cell transfection was carried out by Jetprime® according to the manufacturer's recommendation (Polyplus, Illkirch, France).
Forkhead box protein 3a induced transcriptional activity was measured on transiently transfected HEK293 cells (5 × 10^4). The reporter plasmid encoding luciferase under the control of a promotor containing forkhead responsive elements and the human p-Foxo3a-HA plasmid were gifts of Michael Greenberg provided by the Addgene consortium (#1787 and #1789; Brunet et al., [1999]). The plasmids encoding the mouse p-14-3-3 beta-GST protein and the functional forkhead transcription factor were used in a 1.5-fold amount compared to the reporter construct. The transfection was completed after 6 h and the cells could recover for 4 h in growth medium. The cells were serum starved using 1% (v/v) fetal bovine serum in phenol red free DMEM medium supplemented with antibiotics overnight. After 4 h peptide and 24 h of fusicoccin-A treatment the luciferase assay was developed using luciferase development kit from Promega E151 (Wisconsin, United States) and the luminescence was measured on a synergy H4 plate reader (Biotek). Control compounds were the PI3K inhibitors wortmannin and LY294002 (both Sigma Aldrich). The recorded data were normalized to the non-treated control sample. Significance and IC50-values were calculated from at least two biological replicates using GraphPad Prism. Data analysis was performed by non-linear regression using a four parameter Hill equation.
If not stated in detail for the respective single experiment the statistical tests were performed using GraphPad Prism 5.04 (GraphPad, La Jolla, CA) using one-way ANOVA with Bonferonni or Dunnett's Post-hoc test. The number of technical and biological repeats was justified by analysis of error and reproducibility of results. Significance threshold P < 0.05 was applied to all experiments. For the data shown in Figure 3 three individuals for the in vivo experiments were used and each data point was performed in three technical replicates. The pull down experiments shown in Figures 4A,B were performed a single time and the data represent two technical repeats. Gel lanes were loaded with single (1x) or doubled (2x) amount of pull down proteins for better visibility. The data illustrated in Figures 4C,D were performed in two independent experiments. Silver stained gel lanes were evaluated by loading various amounts, and then the amount with optimized staining contrast was loaded and used for in-gel protein digestion. The pull down experiments shown in Figures 4E,F were performed a single time. The Western Blots and the pull down experiment shown in Figure 5 represent experiments in three and two independent experiments, respectively. Experiments in a well-based format (Figure 6) were performed with three technical and two biological replicates. All data illustrated in this manuscript show the mean ± standard deviation (SD) unless stated otherwise. The MS based protein identifications were performed in two technical analyses for each sample.
Figure 6 Foxo3a luciferase reporter assay. The modulation of the Akt/PI3K/Foxo3a pathway by the cyclotide [T20K]kB1 binding to 14-3-3 proteins was investigated. HEK293 cells were transiently transfected with Foxo3a-Luc plasmid encoding luciferase under a promotor with Foxo response elements, Foxo3a and 14-3-3β. For control the reporter plasmid (basal value) was also co-transfected with the single functional effector proteins 14-3-3β or Foxo3a. Cells were treated under starving conditions with peptide or fusicoccin-A (FC-A) for 4 h or 24 h, respectively. […]

IL-2 in T-lymphocytes = settings: reference not given; cited from earlier work
Excerpt: 14-3-3s are ubiquitous adaptor proteins that are involved in cell signaling, cell cycle progression and apoptosis as well as protein-protein interaction and cellular transport (Aghazadeh and Papadopoulos, [2016]). The 14-3-3 family is often described as a chimera, since knockout of single isoforms may remain without or with minor phenotypic changes due to functional rescue through the recruitment of other family members. […] Many tumor suppressors or oncogenes are regulated by 14-3- ...

Sequence: CGETCVGGTCNTPGCKCSWPVCTRNGLPV (also: bicyclic or more (positions not given here)) [[T20K]kB1, synthetic cyclotide drug candidate, Thr20 to Lys mutant of kalata B1]
- Foxo3a transcriptional activity, effect in words ([1]; HEK293, luciferase reporter, PI3K inhibitors as controls, peptide 4 h): reduced the transcriptional activity of Foxo3a in a concentration-dependent manner
- IC50 ([1]; HEK293 transfected with Foxo3a-Luc, Foxo3a and 14-3-3β, peptide treatment 4 h, IC50 ± SD, two independent experiments, four parameter Hill fit, read-out: IC50, reduction of Foxo3a transcriptional activity (luciferase)): 5.27 ± 0.25 µM
- effect on 14-3-3/Foxo3a protein complex (suggested) ([1]; inferred from decreased Foxo3a transcriptional activity in reporter assay): exerts a stabilizing effect on the 14-3-3/Foxo3a protein complex
- regulatory cytokines such as IL-2 in T-lymphocytes of treated animals (IL-2 in T-lymphocytes): significantly downregulated
